Earlier results on 1 substance are cited in patent US20220333078A1, “Method for ex vivo expansion CD34+HSPCs into NK cells using an aryl hydrocarbon receptor antagonist” (Stichting Radboud universitair medisch centrum, priority 2015, published 2022).

The data set relates to CD34+UCB cells. The note with it: after 25 days of culture with IL-1β; cited from earlier work.

In the case of “IL-1β: cytokine added at the beginning of CD34+UCB culture in the protocol of Ambrosini et al.”, the “overall percentage of CD56+NK cells expressing CD161, LFA1, NKG2A, NKp46, EOMES and perforin” value is listed as below 20%.
